Measurements published in patent US20250195504A1, “NALTREXAMINE DERIVATIVES BEARING 5-MEMBER HETEROCYCLIC RING SYSTEMS AND OPIOID RECEPTOR MODULATORS” (VIRGINIA COMMONWEALTH UNIVERSITY, priority 2022, published 2025).
Counter-ions that a name gives are not always drawn. Like-named read-outs stand apart in the source and are kept apart here.

How the values were obtained:
[1] = In vivo Bioavailability Foral; settings: po
MOR = MOR (Mus musculus, UniProt P42866); assay: MOR [35S]GTPγS functional assay (MOR-CHO membranes); type: biochemical; parameters: expressed in transfected cells; host or cells: CHO; settings: Tables A, B
MOR, sequence (P42866 whole entry): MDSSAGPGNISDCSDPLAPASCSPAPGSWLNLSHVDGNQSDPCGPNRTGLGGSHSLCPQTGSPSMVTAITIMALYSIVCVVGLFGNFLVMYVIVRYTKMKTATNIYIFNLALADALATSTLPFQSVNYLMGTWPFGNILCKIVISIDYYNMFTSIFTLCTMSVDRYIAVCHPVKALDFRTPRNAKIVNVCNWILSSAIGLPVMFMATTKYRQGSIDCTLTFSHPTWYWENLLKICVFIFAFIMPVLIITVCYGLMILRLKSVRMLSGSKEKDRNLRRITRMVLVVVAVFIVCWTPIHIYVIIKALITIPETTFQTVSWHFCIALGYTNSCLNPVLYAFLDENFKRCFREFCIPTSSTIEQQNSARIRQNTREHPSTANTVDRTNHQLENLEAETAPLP
Experimental: The [^35S]GTPγS functional assay was conducted to determine the efficacy of the compounds at the MOR. […] The Bradford protein assay was utilized to determine and adjust the concentration of protein required for the assay. Nonspecific binding was determined with 20 μM unlabeled GTPγS. Furthermore, 3 μM DAMGO was included in the assay as the maximally effective concentration of a full agonist for the MOR. After incubation, the bound radioactive ligand was separated from the free radioligand by filtration through a GF/B glass fiber filter paper and rinsed three times with ice-cold wash buffer (50 mM Tris-HCl, pH 7.2) using the Brandel harvester. Bound radioactivity was determined by liquid scintillation counting. All assays were determined in duplicate and repeated at least three times. Net stimulated [^35S]GTPγS binding was defined as agonist-stimulated minus basal binding in the absence of agonist. Percent of DAMGO-stimulated [^35S]GTPγS binding was defined as (net-stimulated binding by ligand/net-stimulated binding by 3 μM DAMGO)×100%.
Results were reported as mean values ±SEM.
The [^35S]-GTPγS binding assay was carried out as well to determine the functionality on the MOR of each compound. […] The [^35S]GTPγS functional assay was conducted to determine the efficacy of the compounds at the MOR, KOR and DOR. […] The Bradford protein assay was utilized to determine and adjust the concentration of protein required for the assay. Nonspecific binding was determined with 20 μM unlabeled GTPγS. Furthermore, 3 μM DAMGO/U50488H/SNC80 was included in the assay as the maximally effective concentration of a full agonist for the MOR/KOR/DOR. After incubation, the bound radioactive ligand was separated from the free radioligand by filtration through a GF/B glass fiber filter paper using a Brandel harvester. Bound radioactivity was determined by liquid scintillation counting. All assays were determined in duplicate and repeated at least three times. Net stimulated [^35S]GTPγS binding was defined as agonist-stimulated minus basal binding in the absence of agonist. Percent of DAMGO/U50488H/SNC80 stimulated [^35S]GTPγS binding was defined as (net-stimulated binding by ligand/net-stimulated binding by 3 μM DAMGO U50488H/SNC80)×100%.

[2] = Self-administration Studies, Abuse liability; settings: in vivo
[3] = Metabolic Stability (half-life), rat
CYP2D6 = CYP2D6 (Homo sapiens, UniProt P10635); assay: CYP450 enzyme testing, CYP2D6
CYP2D6, sequence (P10635 whole entry): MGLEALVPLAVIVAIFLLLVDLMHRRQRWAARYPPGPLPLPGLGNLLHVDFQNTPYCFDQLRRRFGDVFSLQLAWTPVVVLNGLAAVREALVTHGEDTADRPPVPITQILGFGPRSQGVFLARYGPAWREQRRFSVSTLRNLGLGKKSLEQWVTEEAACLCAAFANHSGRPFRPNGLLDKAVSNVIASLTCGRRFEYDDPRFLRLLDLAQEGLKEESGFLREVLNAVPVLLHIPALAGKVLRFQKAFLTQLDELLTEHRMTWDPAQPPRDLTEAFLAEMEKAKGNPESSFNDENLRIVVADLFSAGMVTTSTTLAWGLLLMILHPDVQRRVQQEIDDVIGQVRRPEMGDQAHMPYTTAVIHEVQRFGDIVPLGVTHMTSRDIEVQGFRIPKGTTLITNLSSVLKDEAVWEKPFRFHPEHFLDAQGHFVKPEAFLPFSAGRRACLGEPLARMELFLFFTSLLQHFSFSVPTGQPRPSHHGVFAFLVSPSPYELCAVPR

[4] = Protein Binding (plasma), rat
DOR = molecular target: T1, DOR (Homo sapiens, UniProt P41143); assay: DOR [35S]GTPγS binding assay; type: biochemical; settings: Tables A, B
T1 construct: expressed in transfected cells; host or cells: CHO
T1 sequence (P41143 whole entry): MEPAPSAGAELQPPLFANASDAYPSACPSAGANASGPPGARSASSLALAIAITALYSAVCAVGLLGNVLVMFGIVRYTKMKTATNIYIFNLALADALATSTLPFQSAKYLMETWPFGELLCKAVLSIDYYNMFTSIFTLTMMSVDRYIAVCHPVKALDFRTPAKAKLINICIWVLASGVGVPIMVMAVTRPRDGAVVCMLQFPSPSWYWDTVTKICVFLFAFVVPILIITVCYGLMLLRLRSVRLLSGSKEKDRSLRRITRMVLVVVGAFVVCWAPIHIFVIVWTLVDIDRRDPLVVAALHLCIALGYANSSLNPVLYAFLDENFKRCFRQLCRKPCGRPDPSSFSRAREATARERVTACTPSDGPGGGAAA
Experimental: The [^35S]GTPγS functional assay was conducted to determine the efficacy of the compounds at the MOR, KOR and DOR. […] The Bradford protein assay was utilized to determine and adjust the concentration of protein required for the assay. Nonspecific binding was determined with 20 μM unlabeled GTPγS. Furthermore, 3 μM DAMGO/U50488H/SNC80 was included in the assay as the maximally effective concentration of a full agonist for the MOR/KOR/DOR. After incubation, the bound radioactive ligand was separated from the free radioligand by filtration through a GF/B glass fiber filter paper using a Brandel harvester. Bound radioactivity was determined by liquid scintillation counting. All assays were determined in duplicate and repeated at least three times. Net stimulated [^35S]GTPγS binding was defined as agonist-stimulated minus basal binding in the absence of agonist. Percent of DAMGO/U50488H/SNC80 stimulated [^35S]GTPγS binding was defined as (net-stimulated binding by ligand/net-stimulated binding by 3 μM DAMGO U50488H/SNC80)×100%.

[5] = Metabolic Stability (half-life), human
hM2 = molecular target: T2, hM2 (Homo sapiens, UniProt P08172); assay: side effect profiling, hM2; type: binding; settings: for hM2 binding: at 10 uM
T2 sequence (P08172 1-466): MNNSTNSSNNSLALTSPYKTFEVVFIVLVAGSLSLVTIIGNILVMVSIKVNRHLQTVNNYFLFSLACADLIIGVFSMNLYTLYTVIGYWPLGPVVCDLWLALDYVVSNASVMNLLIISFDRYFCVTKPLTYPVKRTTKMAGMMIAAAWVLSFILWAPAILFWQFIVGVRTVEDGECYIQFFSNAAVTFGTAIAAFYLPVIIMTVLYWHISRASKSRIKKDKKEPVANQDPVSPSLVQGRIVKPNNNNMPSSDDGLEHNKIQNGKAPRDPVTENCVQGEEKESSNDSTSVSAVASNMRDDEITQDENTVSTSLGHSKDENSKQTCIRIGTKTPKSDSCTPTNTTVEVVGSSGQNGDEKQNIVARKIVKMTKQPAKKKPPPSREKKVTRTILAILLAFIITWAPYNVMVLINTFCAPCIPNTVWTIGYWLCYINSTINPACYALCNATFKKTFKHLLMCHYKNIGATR

solubility = settings: Tables A, B
hM1 = molecular target: T3, hM1 (Homo sapiens, UniProt P11229); assay: side effect profiling, hM1; type: binding; settings: for hM1 binding: at 10 uM
T3 sequence (P11229 1-460): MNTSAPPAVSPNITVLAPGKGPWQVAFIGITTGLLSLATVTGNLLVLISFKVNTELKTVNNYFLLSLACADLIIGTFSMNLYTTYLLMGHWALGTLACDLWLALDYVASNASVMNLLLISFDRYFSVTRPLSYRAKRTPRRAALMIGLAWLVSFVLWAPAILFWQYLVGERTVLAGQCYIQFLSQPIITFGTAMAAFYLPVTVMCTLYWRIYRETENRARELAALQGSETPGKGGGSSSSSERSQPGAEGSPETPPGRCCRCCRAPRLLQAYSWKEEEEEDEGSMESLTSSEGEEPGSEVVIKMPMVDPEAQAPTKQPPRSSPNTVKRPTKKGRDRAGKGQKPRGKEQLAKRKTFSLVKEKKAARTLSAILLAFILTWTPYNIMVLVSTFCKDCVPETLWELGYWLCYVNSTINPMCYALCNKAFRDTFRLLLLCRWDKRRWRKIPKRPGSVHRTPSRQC

| SMILES | bioavailability [1] [%] | 35S-GTP[γS]-Binding MOR Efficacy (% max of DAMGO) (MOR) [%] | Self-administration Studies Abuse liability [2] | half-life [3] [h] | CYP2D6 inhibition (in words) (CYP2D6; human) | fraction unbound [4] | 35S-GTP[γS]-Binding DOR Efficacy (% max of SNC80) (DOR) [%] | half-life [5] [h] | Ki (hM2) [nM] | hM2 binding (hM2) | Solubility (solubility) | EC50 (MOR; 35S-GTP[γS]-Binding MOR Potency EC50, nM) [nM] | AMES testing (AMES testing) | Ki (hM1) [nM] | hM1 binding (hM1) | CYP2D6 inhibition (in words) (CYP2D6) | EC50 (MOR; read-out: 35S-GTP[γS]-Binding MOR Potency EC50) [nM] | EC50 (DOR; read-out: 35S-GTP[γS]-Binding DOR Potency EC50) [nM] |
| --- | --- | --- | --- | --- | --- | --- | --- | --- | --- | --- | --- | --- | --- | --- | --- | --- | --- | --- |
| O=C(N[C@H]1CCC2(O)C3Cc4ccc(O)c5c4[C@@]2(CCN3CC2CC2)[C@H]1O5)c1ccc[nH]1 (stereo partly drawn) [Example 1 compound 1, 17-Cyclopropylmethyl-3,14β-dihydroxy-4,5α-epoxy-6a-[(2′-pyrrolyl)carboxamido]morphinan hydrochloride] | 59 | 12.11 ± 2.64 | No significant abuse liability | > 1 | Only moderate at CYP2D6 and CYP2C19 | 0.43 | 50.94 ± 5.26 | > 1 | 7280 | 58% |  |  |  |  |  |  |  |  |
| O=C(N[C@H]1CC[C@@]2(O)[C@H]3Cc4ccc(O)c5c4[C@@]2(CCN3CC2CC2)[C@H]1O5)c1cccs1 [Example 1 compound 25, 17-Cyclopropylmethyl-3,14β-dihydroxy-4,5α-epoxy-6α-(2′-thienylcarboxamido)morphinan hydrochloride] | 19 | 21.81 ± 6.17 |  | > 1 |  | 0.36 | 48.58 ± 3.41 | > 1 | 1900 | 81% | Solubility: DMSO, H2O | 0.49 ± 0.09 | No toxicity shown | 8400 | 53% |  |  |  |
| O=C(N[C@H]1CC[C@@]2(O)[C@H]3Cc4ccc(O)c5c4[C@@]2(CCN3CC2CC2)[C@H]1O5)c1ccsc1 [Example 1 compound 31, 17-Cyclopropylmethyl-3,14β-dihydroxy-4,5α-epoxy-6α-(3′-thienylcarboxamido)morphinan hydrochloride] | 15 | 30.66 ± 4.44 | No significant abuse liability | 0.733 |  | 0.44 | 58.5 ± 3.13 | > 1 |  | hM2 (82% at 10 uM) | Solubility: DMSO, H2O |  | No toxicity shown |  | hM1 (62% at 10 uM) | Only moderate at CYP2D6 and CYP2C19 |  |  |
| O=C(N[C@H]1CC[C@@]2(O)[C@H]3Cc4ccc(O)c5c4[C@@]2(CCN3CC2CC2)[C@H]1O5)c1nccs1 [NTZ, 17-Cyclopropylmethyl-3,14β-dihydroxy-4,5α-epoxy-6α-(2′-thiazolylcarboxamido)morphinan hydrochloride] |  | 11.29 ± 1.30 | No significant abuse liability | > 1 | potent at CYP2D6 inhibition | 0.4 | 46.51 ± 2.17 | > 1 |  | hM2 (88% at 10 uM) | Solubility: DMSO, H2O |  | No toxicity shown |  | hM1 (53% at 10 uM) |  | 2.16 ± 0.38 | 23.6 ± 4.29 |
